From ChEMBL document CHEMBL5291721, “A preclinical secondary pharmacology resource illuminates target-adverse drug reaction associations of marketed drugs” (Nat Commun, 2023) come the findings set out here.

Test [1] has as its target Glutamate receptor ionotropic, NMDA 1 (Rattus norvegicus, UniProt P35439).
Test [2] addresses D(1A) dopamine receptor (Homo sapiens, UniProt P21728).
Test [3] addresses T1, Thromboxane A2 receptor (Homo sapiens, UniProt P21731).
T1 sequence (P21731 whole entry): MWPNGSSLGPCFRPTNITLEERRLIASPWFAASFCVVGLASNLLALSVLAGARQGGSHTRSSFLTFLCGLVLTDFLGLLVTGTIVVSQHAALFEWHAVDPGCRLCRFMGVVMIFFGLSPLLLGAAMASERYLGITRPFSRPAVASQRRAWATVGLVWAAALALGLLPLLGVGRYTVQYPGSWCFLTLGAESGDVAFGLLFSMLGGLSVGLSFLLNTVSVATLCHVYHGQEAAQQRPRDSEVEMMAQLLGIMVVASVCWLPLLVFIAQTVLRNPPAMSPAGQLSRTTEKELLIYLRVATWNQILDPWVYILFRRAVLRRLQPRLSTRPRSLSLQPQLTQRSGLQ
It is filed as functional, cell-based.

Test [4] deals with 5-hydroxytryptamine receptor 2B (Homo sapiens, UniProt P41595). It counts as functional, cell-based.
Test [5] addresses T2, Muscarinic acetylcholine receptor M2 (Homo sapiens, UniProt P08172).
T2 sequence (P08172 whole entry): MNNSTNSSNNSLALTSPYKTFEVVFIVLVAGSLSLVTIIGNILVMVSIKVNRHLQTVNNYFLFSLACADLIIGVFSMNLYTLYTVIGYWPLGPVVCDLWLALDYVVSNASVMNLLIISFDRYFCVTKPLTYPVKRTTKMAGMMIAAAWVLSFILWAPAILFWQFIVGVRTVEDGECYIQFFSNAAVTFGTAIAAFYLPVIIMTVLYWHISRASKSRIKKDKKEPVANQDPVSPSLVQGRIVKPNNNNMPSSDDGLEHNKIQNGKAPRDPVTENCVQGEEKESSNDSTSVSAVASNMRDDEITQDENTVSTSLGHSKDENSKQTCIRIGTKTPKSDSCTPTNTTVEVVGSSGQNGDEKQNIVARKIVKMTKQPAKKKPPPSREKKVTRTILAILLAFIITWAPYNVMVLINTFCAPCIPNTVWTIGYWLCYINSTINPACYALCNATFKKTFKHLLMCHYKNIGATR

Test [6] deals with T3, Progesterone receptor (Homo sapiens, UniProt P06401).
T3 sequence (P06401 whole entry): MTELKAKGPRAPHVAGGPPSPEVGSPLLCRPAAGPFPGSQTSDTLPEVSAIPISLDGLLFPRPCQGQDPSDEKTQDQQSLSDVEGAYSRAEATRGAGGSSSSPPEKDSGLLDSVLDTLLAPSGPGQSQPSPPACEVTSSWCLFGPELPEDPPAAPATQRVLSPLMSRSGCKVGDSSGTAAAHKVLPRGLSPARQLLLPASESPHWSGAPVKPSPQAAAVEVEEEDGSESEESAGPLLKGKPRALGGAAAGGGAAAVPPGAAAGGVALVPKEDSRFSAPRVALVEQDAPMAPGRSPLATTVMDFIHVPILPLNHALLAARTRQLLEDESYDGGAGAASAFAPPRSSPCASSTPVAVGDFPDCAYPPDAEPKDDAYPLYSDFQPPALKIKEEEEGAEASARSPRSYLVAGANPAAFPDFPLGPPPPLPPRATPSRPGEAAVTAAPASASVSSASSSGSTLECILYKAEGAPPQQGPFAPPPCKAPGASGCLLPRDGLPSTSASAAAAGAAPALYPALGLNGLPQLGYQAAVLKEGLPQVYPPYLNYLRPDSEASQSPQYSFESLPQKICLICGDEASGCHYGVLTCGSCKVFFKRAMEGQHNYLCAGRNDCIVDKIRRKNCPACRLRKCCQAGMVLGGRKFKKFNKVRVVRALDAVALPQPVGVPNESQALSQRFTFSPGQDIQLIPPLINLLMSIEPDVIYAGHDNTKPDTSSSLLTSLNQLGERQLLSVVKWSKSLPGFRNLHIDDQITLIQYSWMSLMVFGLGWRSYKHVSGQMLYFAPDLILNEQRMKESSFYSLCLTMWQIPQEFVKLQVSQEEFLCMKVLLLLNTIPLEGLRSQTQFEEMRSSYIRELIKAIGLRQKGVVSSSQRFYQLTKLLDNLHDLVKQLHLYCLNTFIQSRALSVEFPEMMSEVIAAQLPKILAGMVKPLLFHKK

Test [7] deals with T4, Endothelin-1 receptor (Homo sapiens, UniProt P25101).
T4 sequence (P25101 whole entry): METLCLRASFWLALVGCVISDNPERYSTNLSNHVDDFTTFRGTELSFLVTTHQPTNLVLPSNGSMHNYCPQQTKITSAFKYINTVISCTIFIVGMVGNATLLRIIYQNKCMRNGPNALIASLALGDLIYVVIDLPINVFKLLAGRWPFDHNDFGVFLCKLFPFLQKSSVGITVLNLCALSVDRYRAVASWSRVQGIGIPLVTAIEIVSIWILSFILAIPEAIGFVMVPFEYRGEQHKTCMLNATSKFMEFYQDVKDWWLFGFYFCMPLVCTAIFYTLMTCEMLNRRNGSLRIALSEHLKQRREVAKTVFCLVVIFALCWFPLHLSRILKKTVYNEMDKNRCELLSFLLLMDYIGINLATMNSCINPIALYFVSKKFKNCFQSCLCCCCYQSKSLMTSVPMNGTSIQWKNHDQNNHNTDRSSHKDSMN

In test [8] the target is T5, Alpha-2A adrenergic receptor (Homo sapiens, UniProt P08913).
T5 sequence (P08913 whole entry): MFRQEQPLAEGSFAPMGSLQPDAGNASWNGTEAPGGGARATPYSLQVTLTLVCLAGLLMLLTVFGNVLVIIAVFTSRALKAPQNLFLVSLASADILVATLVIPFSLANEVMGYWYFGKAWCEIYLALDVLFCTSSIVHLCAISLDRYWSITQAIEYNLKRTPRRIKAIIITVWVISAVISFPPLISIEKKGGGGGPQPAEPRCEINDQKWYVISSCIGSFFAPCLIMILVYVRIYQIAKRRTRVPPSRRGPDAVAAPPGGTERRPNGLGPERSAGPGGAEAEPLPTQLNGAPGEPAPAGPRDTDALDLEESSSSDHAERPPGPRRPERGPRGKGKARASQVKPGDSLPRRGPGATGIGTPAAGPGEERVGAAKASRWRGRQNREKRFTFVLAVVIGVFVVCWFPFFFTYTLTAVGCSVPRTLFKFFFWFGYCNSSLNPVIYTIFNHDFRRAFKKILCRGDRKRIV

Bounds are passed on as bounds.
Further: assay procedure not described here.

Sequence of D(1A) dopamine receptor (P21728 whole entry): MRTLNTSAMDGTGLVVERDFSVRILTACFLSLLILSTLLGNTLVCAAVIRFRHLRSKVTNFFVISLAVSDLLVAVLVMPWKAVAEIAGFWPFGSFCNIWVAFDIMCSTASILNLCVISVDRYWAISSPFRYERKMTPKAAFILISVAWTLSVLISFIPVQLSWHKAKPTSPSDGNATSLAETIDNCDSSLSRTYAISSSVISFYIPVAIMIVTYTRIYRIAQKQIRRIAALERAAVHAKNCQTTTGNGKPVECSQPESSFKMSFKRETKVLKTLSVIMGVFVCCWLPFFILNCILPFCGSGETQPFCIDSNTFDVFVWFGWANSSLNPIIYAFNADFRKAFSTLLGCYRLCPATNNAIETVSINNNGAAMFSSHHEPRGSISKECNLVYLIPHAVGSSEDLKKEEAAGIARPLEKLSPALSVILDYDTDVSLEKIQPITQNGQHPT
Sequence of 5-hydroxytryptamine receptor 2B (P41595 whole entry): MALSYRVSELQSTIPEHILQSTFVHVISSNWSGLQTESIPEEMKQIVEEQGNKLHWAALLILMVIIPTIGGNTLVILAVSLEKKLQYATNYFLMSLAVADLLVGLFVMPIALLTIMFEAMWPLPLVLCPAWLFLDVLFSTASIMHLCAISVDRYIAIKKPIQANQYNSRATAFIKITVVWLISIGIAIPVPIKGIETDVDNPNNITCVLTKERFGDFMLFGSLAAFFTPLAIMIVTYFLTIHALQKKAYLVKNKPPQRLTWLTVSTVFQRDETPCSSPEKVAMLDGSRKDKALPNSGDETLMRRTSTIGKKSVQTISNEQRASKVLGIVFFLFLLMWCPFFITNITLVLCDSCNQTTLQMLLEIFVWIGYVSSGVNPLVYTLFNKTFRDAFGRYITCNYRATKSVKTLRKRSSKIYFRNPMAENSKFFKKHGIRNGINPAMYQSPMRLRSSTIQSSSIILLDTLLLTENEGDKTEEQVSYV

As for `OCCN1CCN(CCCN2c3ccccc3C=Cc3ccccc32)CC1` [OPIPRAMOL], the AC50 (usually the midpoint of the concentration-response curve, whichever way the signal moves) in test [1] is above 30 µM; in test [2] it was 1.29 µM; in test [3] it was above 30 µM; in test [4] it was above 30 µM; in test [5], 9.58 µM; in test [6], above 30 µM. The AC50 is above 30 µM in test [7] and 9.6 µM in test [8].

For the compound `CCc1ccc(CCOc2ccc(CC3SC(=O)NC3=O)cc2)nc1` (stereo not given) [PIOGLITAZONE], the AC50 is above 10 µM in test [1]; above 30 µM in test [2]; above 30 µM in test [3]; above 30 µM in test [4]; above 30 µM in test [5]; above 30 µM in test [6]. The AC50 in test [7] was 15.9 µM; in test [8] it was above 30 µM.

In the case of `CC(C(=O)O)c1ccc(N2CC=CC2)c(Cl)c1` (stereo not given) [PIRPROFEN], the concentration at half-maximal activity (AC50) in test [1] is above 10 µM; in test [2], above 30 µM; in test [3], above 30 µM; in test [4], above 30 µM; in test [5], above 30 µM; in test [6] it was above 30 µM. For the same compound, the AC50 in test [7] and in test [8] was above 30 µM in each case.

Turning to `NC(=O)c1cnccn1` [PYRAZINAMIDE], the AC50 in test [1], in test [2], in test [3], in test [4], in test [5] and in test [6] was above 30 µM each time. Moreover, the AC50 in test [7] and in test [8] was above 30 µM each time.

For `CS(=O)(=O)c1ccc([C@@H](O)[C@@H](CO)NC(=O)C(Cl)Cl)cc1` [THIAMPHENICOL], the AC50 in test [1], in test [2], in test [3], in test [4], in test [5] and in test [6] was above 30 µM in each case. For the same compound, the AC50 in test [7] and in test [8] was above 30 µM throughout.
